Among the test systems are SNB-19 CNS; SW-620 colon; K-562 leukemia; MDA-MB-435; SR leukemia; EKVX NSCLC; HS 578T breast; OVCAR-3 ovarian; LOX IMVI melanoma; NCI-H460 lung; CAKI-1 renal; SF-539 CNS.
Holding throughout (assay): NCI tumour cell line growth inhibition, 48 h

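In this assay, cells in 96-well plates receive the compound at five concentrations for 48 hours. Endpoints are linearly interpolated between the surrounding concentrations. The concentration for full growth arrest is given as TGI.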

Consider `O=C(CN(C(=O)OC12CC3CC(CC(C3)C1)C2)C(=O)OC12CC3CC(CC(C3)C1)C2)Oc1ccc([N+](=O)[O-])cc1`, for which the TGI in the assay with SNB-19 CNS, in the assay on SW-620 colon, in the assay on K-562 leukemia, in the assay on MDA-MB-435, in the assay with SR leukemia and in the assay on EKVX NSCLC was more than 100 µM each time. Besides, the TGI in the assay on HS 578T breast, with OVCAR-3 ovarian, with LOX IMVI melanoma, in the assay on NCI-H460 lung, with CAKI-1 renal and in the assay with SF-539 CNS was more than 100 µM in each case.

Consider `COC(=O)c1cc(C(=O)OC)c(CC(=O)C(=O)NC2C3CC4CC(C3)CC2C4)nc1CC(=O)C(=O)NC1C2CC3CC(C2)CC1C3` (stereo unspecified), for which the TGI in the assay on SNB-19 CNS, in the assay with SW-620 colon, in the assay on K-562 leukemia, in the assay with SR leukemia, in the assay on EKVX NSCLC and with OVCAR-3 ovarian was more than 100 µM in each case. The TGI with LOX IMVI melanoma, with NCI-H460 lung, with CAKI-1 renal and in the assay with SF-539 CNS was more than 100 µM in each case.

Take `CC(=O)Nc1ccc2nc(-c3ccccn3)c(-c3ccccn3)nc2c1`: the TGI in the assay on SNB-19 CNS, in the assay on SW-620 colon, with K-562 leukemia, in the assay with MDA-MB-435, in the assay on SR leukemia and with EKVX NSCLC was more than 100 µM in each case. For the same compound, the TGI in the assay with HS 578T breast, in the assay on OVCAR-3 ovarian, in the assay with LOX IMVI melanoma, in the assay on NCI-H460 lung, in the assay on CAKI-1 renal and with SF-539 CNS was more than 100 µM in each case.

On to `CCOC(=O)C1SC(=Nc2ccc(OC)c(OC)c2)N=C1C` (stereo unspecified), for which the TGI is more than 100 µM in the assay with SNB-19 CNS; more than 100 µM in the assay on SW-620 colon; more than 100 µM in the assay on K-562 leukemia; more than 100 µM with EKVX NSCLC; 86.7 µM in the assay with OVCAR-3 ovarian; more than 100 µM in the assay on LOX IMVI melanoma. The TGI in the assay on NCI-H460 lung, in the assay with CAKI-1 renal and with SF-539 CNS was more than 100 µM each time.

Take `COc1ccc(C2=NN(c3ccccc3)C[N+](c3ccc(C)cc3)=N2)cc1`: the TGI was more than 100 µM in the assay on SNB-19 CNS; 64.4 µM in the assay with SW-620 colon; 53.9 µM in the assay with K-562 leukemia; more than 100 µM in the assay on SR leukemia; more than 100 µM in the assay on EKVX NSCLC; 47.2 µM in the assay on OVCAR-3 ovarian. For the same compound, the TGI in the assay on LOX IMVI melanoma and in the assay with NCI-H460 lung was more than 100 µM each time.

As to `O=C(O)/C(Cl)=C(\Cl)C(=O)c1ccccc1`, the TGI with SNB-19 CNS, with SW-620 colon, with K-562 leukemia, with SR leukemia, with EKVX NSCLC and in the assay with OVCAR-3 ovarian was more than 100 µM each time. Also, the TGI with LOX IMVI melanoma, in the assay with NCI-H460 lung, with CAKI-1 renal and in the assay on SF-539 CNS was more than 100 µM throughout.

Consider `N#Cc1ccc(Cc2ccccn2)cc1Cl`, for which the TGI with SNB-19 CNS, with SW-620 colon, in the assay with K-562 leukemia, with SR leukemia, in the assay on EKVX NSCLC and in the assay with LOX IMVI melanoma was more than 100 µM each time. Also, the TGI in the assay on NCI-H460 lung, in the assay on CAKI-1 renal and with SF-539 CNS was more than 100 µM in each case.

For `CC(=O)OC(CC1(C)C(C)CCC23COC(=O)C2=CCCC31)c1ccoc1` (stereo unspecified), the TGI is 82.9 µM in the assay on SNB-19 CNS; 66.8 µM in the assay on SW-620 colon; more than 100 µM in the assay on K-562 leukemia; 97.6 µM in the assay on EKVX NSCLC; 46.1 µM with OVCAR-3 ovarian; 47.9 µM in the assay with LOX IMVI melanoma. Moreover, the TGI is more than 100 µM in the assay on NCI-H460 lung and 62.5 µM in the assay with SF-539 CNS.

On to `CNC(=O)NCNC(=O)NC`, for which the TGI in the assay on SW-620 colon, in the assay with K-562 leukemia, with EKVX NSCLC, in the assay with OVCAR-3 ovarian, in the assay with LOX IMVI melanoma and with NCI-H460 lung was more than 100 µM in each case. The TGI with CAKI-1 renal and in the assay on SF-539 CNS was more than 100 µM each time.

Take `O=C(Nc1ccc(Cl)cc1C(F)(F)F)C(=O)C1CCCS1(=O)=O` (stereo unspecified): the TGI was more than 100 µM with SNB-19 CNS; more than 10 µM with SW-620 colon; more than 100 µM in the assay with K-562 leukemia; more than 100 µM in the assay on SR leukemia; more than 100 µM in the assay on EKVX NSCLC; more than 100 µM with OVCAR-3 ovarian. Moreover, the TGI in the assay on LOX IMVI melanoma, in the assay on NCI-H460 lung, with CAKI-1 renal and in the assay on SF-539 CNS was more than 100 µM each time.

With `CC(CCC[C@H](C)CO)[C@H]1[C@@H](O)C(O)C2[C@@H]3C[C@@H](O)C4(O)C[C@@H](O)CC[C@]4(C)C3CC[C@@]21C` (stereo partly specified), the TGI in the assay on SNB-19 CNS, with SW-620 colon, in the assay with K-562 leukemia, with SR leukemia, with EKVX NSCLC and in the assay on OVCAR-3 ovarian was more than 100 µM in each case. In addition, the TGI in the assay with LOX IMVI melanoma, in the assay on NCI-H460 lung, in the assay on CAKI-1 renal and with SF-539 CNS was more than 100 µM in each case.

In the case of `CC1CN=C(NS(=O)(=O)c2cc(C(=O)Nc3ccc(Cl)cc3)c(Cl)cc2S)NN1` (stereo unspecified), the TGI with SNB-19 CNS is more than 100 µM; in the assay with SW-620 colon it was more than 100 µM; with K-562 leukemia, more than 100 µM; in the assay on MDA-MB-435 it was 73.1 µM; in the assay with SR leukemia, more than 100 µM; with EKVX NSCLC, more than 100 µM. Moreover, the TGI with OVCAR-3 ovarian was more than 100 µM; with LOX IMVI melanoma, more than 100 µM; with NCI-H460 lung it was more than 100 µM; in the assay with CAKI-1 renal it was more than 100 µM; with SF-539 CNS, 81.8 µM.

For `COc1cc2c(c(OC)c1OC)-c1ccc(SC)c(=O)cc1C(CC(=O)Oc1cccc([N+](=O)[O-])c1)C2` (stereo unspecified), the TGI is more than 100 µM in the assay with SNB-19 CNS; more than 100 µM in the assay with SW-620 colon; more than 100 µM in the assay with K-562 leukemia; more than 100 µM in the assay on EKVX NSCLC; 0.94 µM in the assay on OVCAR-3 ovarian; more than 32.1 µM with LOX IMVI melanoma. Besides, the results for the TGI in the assay on NCI-H460 lung, in the assay with CAKI-1 renal and in the assay with SF-539 CNS were 8.13 µM, more than 100 µM and 1.32 µM, respectively.

(Values after PubChem BioAssay (NCI).)
